pIC50: −log10 of the molar value.

One assay has as its target GABAA receptor (rat brain cortical membranes, [35S]-TBPS binding).
Assay: not given
As to conditions: Table I-4; rat brain cortical membranes, 3 nM [35S]-TBPS, in the presence of 5 mM GABA.
Consider `CCOC[C@@]1(O)CC[C@H]2[C@@H](CC[C@@H]3[C@@H]2CC[C@]2(C)[C@@H](C(C)=O)CCC[C@@H]32)C1` [I-S3, 1-((1S,4aS,4bR,6aS,8R,10aS,10bR,12aS)-8-(ethoxymethyl)-8-hydroxy-12a-methyloctadecahydrochrysen-1-yl)ethan-1-one], for which the pIC50 is 6.00 to 7.00.

On to `C[C@@]1(O)CC[C@H]2[C@H](CC[C@@H]3[C@@H]2CC[C@]2(C)C[C@@H](C(=O)c4ccccc4)CC[C@@H]32)C1` [I-R21, ((2S,4aS,4bR,6aR,8R,10aS,10bR,12aR)-8-hydroxy-8,12a-dimethyloctadecahydrochrysen-2-yl)(phenyl)methanone], for which the pIC50 is 6.00 to 7.00.

With `COC[C@@]1(O)CC[C@H]2[C@H](CC[C@@H]3[C@@H]2CC[C@]2(C)C(=O)[C@H](C)CC[C@@H]32)C1` [Compound I-53, (2R,4aS,4bR,6aR,8R,10aS,10bR,12aS)-8-hydroxy-8-(methoxymethyl)-2,12a-dimethylhexadecahydrochrysen-1(2H)-one], the pIC50 was 5.00 to 6.00. As for `COC[C@@]1(O)CC[C@H]2[C@H](CC[C@@H]3[C@@H]2CC[C@]2(C)[C@@H](O)CCC[C@@H]32)C1` [I-L8, (1S,4aS,4bR,6aR,8R,10aS,10bR,12aS)-8-(methoxymethyl)-12a-methyloctadecahydrochrysene-1,8-diol], the pIC50 is 5.00 to 6.00. As for `C[C@@]1(O)CC[C@H]2[C@H](CC[C@@H]3[C@@H]2CC[C@]2(C)[C@@H](Nc4cccc(C#N)c4)CCC[C@@H]32)C1` [Compound I-10, 3-(((1S,4aS,4bR,6aR,8R,10aS,10bR,12aS)-8-hydroxy-8,12a-dimethyloctadecahydrochrysen-1-yl)amino)benzonitrile], the negative-log IC50 (pIC50) is 7.00 to 8.00. With `COC[C@@]1(O)CC[C@H]2[C@@H](CC[C@@H]3[C@@H]2CC[C@]2(C)[C@@H](C(C)=O)CCC[C@@H]32)C1` [I-G14, 1-((1S,4aS,4bR,6aS,8R,10aS,10bR,12aS)-8-hydroxy-8-(methoxymethyl)-12a-methyloctadecahydrochrysen-1-yl)ethan-1-one], the pIC50 was 7.00 to 8.00. As to `COC[C@@]1(OC)CC[C@H]2[C@H](CC[C@@H]3[C@@H]2CC[C@]2(C)[C@@H](O)CCC[C@@H]32)C1` [I-L9, (1S,4aS,4bR,6aR,8R,10aS,10bR,12aS)-8-methoxy-8-(methoxymethyl)-12a-methyloctadecahydrochrysen-l-ol], the pIC50 is 5.00 to 6.00. For the compound `CCOC[C@@]1(O)CC[C@H]2[C@@H](CC[C@@H]3[C@@H]2CC[C@]2(C)[C@@H](OC)CCC[C@@H]32)C1` [Compound I-40, (2R,4aS,4bR,6aS,7S,10aS,10bR,12aS)-2-(ethoxymethyl)-7-methoxy-6a-methyloctadecahydrochrysen-2-ol], the pIC50 was 6.00 to 7.00. Consider `C[C@@]1(O)CC[C@H]2[C@H](CC[C@@H]3[C@@H]2CC[C@]2(C)C[C@@H](C(=O)Cn4cc(C#N)cn4)CC[C@@H]32)C1` [I-R17, 1-(2-((2S,4aS,4bR,6aR,8R,10aS,10bR,12aR)-8-hydroxy-8,12a-dimethyloctadecahydrochrysen-2-yl)-2-oxoethyl)-1H-pyrazole-4-carbonitrile], for which the pIC50 was 5.00 to 6.00. On to `C[C@@]1(O)CC[C@H]2[C@H](CC[C@@H]3[C@@H]2CC[C@]2(C)[C@H](Nc4ccc(F)cc4)CCC[C@@H]32)C1` [Compound I-11a, (2R,4aS,4bR,6aS,7R,10aS,10bR,12aR)-7-((4-fluorophenyl)amino)-2,6a-dimethyloctadecahydrochrysen-2-ol], for which the pIC50 was 5.00 to 6.00.

Still in this assay, the particulars now being: Table I-5; rat brain cortical membranes, 3 nM [35S]-TBPS, in the presence of 5 mM GABA.
For `COC[C@@]1(O)CC[C@H]2[C@H](CC[C@@H]3[C@@H]2CC[C@]2(C)[C@H](C(=O)Nc4ccccc4)C[C@@H]32)C1` [I-AC8a, (1R,2aS,2bR,4aR,6R,8aS,8bR,10aS)-6-hydroxy-6-(methoxymethyl)-10a-methyl-N-phenylhexadecahydrocyclobuta[a]phenanthrene-1-carboxamide], the negative logarithm of the IC50 (pIC50) is 5.00 to 6.00.

For the compound `C[C@@]1(O)CC[C@H]2[C@H](CC[C@@H]3[C@@H]2CC[C@]2(C)[C@H](C(=O)Cn4cc(C#N)cn4)C[C@@H]32)C1` [Compound I-105, 1-(2-((1R,2aS,2bR,4aR,6R,8aS,8bR,10aS)-6-hydroxy-6,10a-dimethylhexadecahydrocyclobuta[a]phenanthren-1-yl)-2-oxoethyl)-1H-pyrazole-4-carbonitrile], the negative-log IC50 (pIC50) was 5.00 to 6.00.

The same assay, now with this note: Table I-6; rat brain cortical membranes, 3 nM [35S]-TBPS, in the presence of 5 mM GABA.
Take `COC[C@@H]1CCCC[C@H]2[C@@H]3CC[C@@H]4C[C@](C)(O)CC[C@@H]4[C@H]3CC[C@]12C` [I-BA6a, (2R,4aS,4bR,6aS,7R,11aS,11bR,13aR)-7-(methoxymethyl)-2,6a-dimethyloctadecahydro-1H-cyclohepta[a]phenanthren-2-ol]: the pIC50 was 5.00 to 6.00. With `C[C@@]1(O)CC[C@H]2[C@H](CC[C@@H]3[C@@H]2CC[C@]2(C)[C@H](O)CCCC[C@@H]32)C1` [I-BA12, (2R,4aS,4bR,6aS,7R,11aS,11bR,13aR)-2,6a-dimethyloctadecahydro-1H-cyclohepta[a]phenanthrene-2,7-diol], the pIC50 is 5.00 to 6.00.

With `C[C@@]1(O)CC[C@H]2[C@H](CC[C@@H]3[C@@H]2CC[C@]2(C)C[C@H](C(=O)Nc4ccccc4)CCC[C@@H]32)C1` [I-BC11a], the negative-log IC50 (pIC50) was 5.00 to 6.00.

The target in the next assay is TBPS binding. Kind of assay: Steroid inhibition of TBPS binding. As to conditions: Table II-2; read-out: TBPS IC50 (μm).
On to `C[C@@]1(O)CC[C@@H]2CC[C@@H]3[C@H](CC[C@]4(C)[C@@H](C(=O)Cn5cc(C#N)cn5)CC[C@@H]34)[C@@]2(C)CC1` [II-C8, 1-(2-((1S,3aS,3bR,5aS,8R,10aS,10bS,12aS)-8-hydroxy-8,10a,12a-trimethyloctadecahydrocyclohepta[a]cyclopenta[f]naphthalen-1-yl)-2-oxoethyl)-1H-pyrazole-4-carbonitrile], for which the negative logarithm of the IC50 (pIC50) was 6.00 to 7.00. As to `Cc1nnnn1CC(=O)[C@H]1CC[C@H]2[C@@H]3CC=C4CC[C@](C)(O)CC[C@]4(C)[C@H]3CC[C@]12C` [II-F7, 1-((1S,3aS,3bS,8S,10aR,10bS,12aS)-8-hydroxy-8,10a,12a-trimethyl-1,2,3,3a,3b,4,6,7,8,9,10,10a,10b,11,12,12a-hexadecahydrocyclohepta[a]cyclopenta[f]naphthalen-1-yl)-2-(5-methyl-1H-tetrazol-1-yl)ethan-1-one], the negative logarithm of the IC50 (pIC50) is 7.00 to 8.00. On to `COC[C@]1(O)C[C@H]2CC[C@@H]3[C@H](CC[C@]4(C)[C@@H](C(C)=O)CC[C@@H]34)[C@H]2C1` [II-J9, 1-((1S,3aS,3bR,5aR,7S,8aS,8bR,10aS)-7-hydroxy-7-(methoxymethyl)-10a-methylhexadecahydrodicyclopenta[a,f]naphthalen-l-yl)ethan-1-one], for which the pIC50 is 6.00 to 7.00. On to `CC(=O)[C@H]1CC[C@H]2[C@@H]3CC[C@H]4C[C@H](O)CCC[C@]4(C)[C@H]3CC[C@]12C` [II-B5, 1-((1S,3aS,3bR,5aS,7R,10aS,10bS,12aS)-7-hydroxy-10a,12a-dimethyloctadecahydrocyclohepta[a]cyclopenta[f]naphthalen-1-yl)ethan-1-one], for which the negative logarithm of the IC50 (pIC50) is 6.00 to 7.00. Consider `CC(=O)[C@H]1CC[C@H]2[C@@H]3CC[C@@H]4CC[C@](C)(O)CC[C@@H]4[C@H]3CC[C@]12C` [II-F8, 1-((1S,3aS,3bR,5aR,8S,10aS,10bR,12aS)-8-hydroxy-8,12a-dimethyloctadecahydrocyclohepta[a]cyclopenta[f]naphthalen-1-yl)ethan-1-one], for which the pIC50 is 6.00 to 7.00. For the compound `C[C@]1(O)CC[C@H]2CC[C@@H]3[C@H](CC[C@]4(C)[C@@H](C(=O)Cn5cc(C#N)cn5)CC[C@@H]34)[C@H]2CC1` [II-F11, 1-(2-((1S,3aS,3bR,5aR,8S,10aS,10bR,12aS)-8-hydroxy-8,12a-dimethyloctadecahydrocyclohepta[a]cyclopenta[f]naphthalen-1-yl)-2-oxoethyl)-1H-pyrazole-4-carbonitrile], the negative-log IC50 (pIC50) is 6.00 to 7.00. In the case of `CC(=O)[C@H]1CC[C@H]2[C@@H]3CC[C@@H]4C[C@](C)(O)C[C@@H]4[C@H]3CC[C@]12C` [II-G8, 1-((1S,3aS,3bR,5aR,7S,8aS,8bR,10aS)-7-hydroxy-7,10a-dimethylhexadecahydrodicyclopenta[a,f]naphthalen-1-yl)ethan-1-one], the negative-log IC50 (pIC50) was 6.00 to 7.00. Turning to `CC(=O)[C@H]1CC[C@H]2[C@@H]3CC[C@@H]4CCC(=O)CC[C@@H]4[C@H]3CC[C@]12C` [II-E7a, (1S,3aS,3bR,5aR,10aS,10bR,12aS)-1-acetyl-12a-methylhexadecahydrocyclohepta[a]cyclopenta[f]naphthalen-8(1H)-one], the pIC50 is 5.00 to 6.00.

Still in this assay, the particulars now being: Table III-1; read-out: TBPS IC50.
Take `C[C@@]1(O)CC[C@H]2[C@@H](CCC[C@@H]3[C@@H]2CC[C@]2(C)[C@@H](C(=O)Cn4cc(C#N)cn4)CC[C@@H]32)C1` [III-A15, 1-(2-((1S,3aS,3bR,6aS,8R,10aS,10bR,12aS)-8-hydroxy-8,12a-dimethyloctadecahydrobenzo[3,4]cyclohepta[1,2-e]inden-1-yl)-2-oxoethyl)-1H-pyrazole-4-carbonitrile]: the negative logarithm of the IC50 (pIC50) was 6.00 to 7.00.

Still in this assay, the particulars now being: Table V-2; read-out: TBPS IC50.
In the case of `CC(=O)[C@H]1CC[C@H]2[C@@H]3CC[C@H]4C[C@](C)(O)CC[C@]4(C)[C@H]3CCC[C@]12C` [V-A8, 1-((3aS,4S,6aS,6bR,8aS,10R,12aS,12bS)-10-hydroxy-3a,10,12a-trimethyloctadecahydronaphtho[2,1-e]azulen-4-yl)ethan-1-one], the pIC50 was 6.00 to 7.00.

As a reminder, the pIC50 is the negative decadic logarithm of the IC50, by convention in mol/L.

The record behind these values is patent publication US20220315621A1, “COMPOSITIONS AND METHODS FOR TREATING CNS DISORDERS” (priority 2017, published 2022).
